Source: US20080125432A1 (Devgen NV, priority 2004, published 2008)
Read-outs that look alike come from different tables or passages of the source.

Experiments:
[1] = test system: human Kv4.3/KChIP2.2 potassium channel; experiment: Whole cell patch clamp, CHO-K1 cells stably expressing human Kv4.3/KChIP2.2; type: cell-based; conditions: selectivity for Kv4.3 vs hERG (Patch Clamp test); >5 considered very selective
[2] = test system: C. elegans wild-type strain N2; experiment: Same C. elegans pumping assay format using wild-type strain N2; type: in vivo; conditions: read-out: EC50 (μM) Wild type worm N2
From the text: The screening of the compounds according to the present invention has been performed in the C. elegans based high-throughput screen for Kv4.3 modulators described above. The method for testing the activity on human Kv4.3 of the compounds according to the invention with C. elegans strains expressing human Kv4.3 for their activity is the same as the method described in WO 03/097682. The method for testing the compounds on wild-type C. elegans strains not expressing human Kv4.3 is the same as the method described in WO 00/63427. Briefly, UG1755 animals have been grown in large numbers and staged young adults (no or only few eggs inside the uterus) have been harvested on the day of screening. Approximately 125 animals in 80 μl buffer have been dispensed per well of a “U shaped 96-well compound plate The compound plate contained already compound material at a final concentration of 30 μM in 0.3% DMSO. After one hour incubation 10 μl of the fluorescent label Calcein AM (CAM) have been added to achieve a final concentration of 5 μM CAM and 0.8% DMSO. After another four hours of incubation at 20° C., the drinking of C. elegans animals (or the “reaction 8 measured by the uptake of CAM) has been stopped by adding 10 μl of a 60 μM ivermectin solution. The fluorescence intensity (counts per second) has been measured 40 minutes after adding ivermectin with the Wallac plate reader at a wavelength of 535 nm (after excitation at 485 nm).
These compounds have been also tested in the same assay format using a C. elegans wild-type strain N2 and the corresponding EC50 has been calculated. The ratio of the EC50s obtained for a compound on the two strains (transgenic expressing human Kv4.3 and wild-type) gives an indication on whether said compound is acting on human Kv4.3. […]

| Molecule | Ratio hERG/Kv4.3 [1] | melting point [°C] | further results |
| --- | --- | --- | --- |
| COc1ccccc1Nc1nc(C)c(C(=O)N[C@@H]2CCC[C@H]2OCc2ccccc2)s1 [Compound 31, 2-(2-methoxy-phenylamino)-4-methyl-thiazole-5-carboxylic acid (1R,2R)-2-(benzyloxycyclopent-1-yl) amide] | 8.7 |  |  |
| COc1ccccc1Nc1nc(C)c(C(=O)NCc2ccc(C(C)(C)C)cc2)s1 [Compound 106, 2-(2-methoxy-phenylamino)-4-methyl-thiazole-5-carboxylic acid 4-tert-butyl-benzylamide] |  | 168.5 to 169.4 |  |
| COc1ccccc1Nc1ccc(C(=O)N[C@H]2CCC[C@@H]2OCc2ccccc2)s1 [Compound 75, 2-(2-methoxy-phenylamino)-thiophene-5-carboxylic acid ((1S,2S)-2-benzyloxycyclopent-1-yl) amide] |  | 69.7 to 71.6 |  |
| COc1cccc([C@@H](C)NC(=O)c2sc(Nc3cc(Cl)ccc3OC)nc2C)c1 [Compound 34] | 5.4 |  |  |
| COc1ccccc1Nc1nc(C)c(C(=O)N[C@H]2CCC[C@@H]2OCc2ccccc2)s1 [Compound 68, 2-(2-methoxy-phenylamino)-4-methyl-thiazole-5-carboxylic acid (1S,2S)-2-(benzyloxycyclopent-1-yl) amide] | 14.7 |  |  |
| COc1ccccc1Nc1nc(C)c(C(=O)NCc2ccc(N(C)C)cc2)s1 [Compound 105, 2-(2-methoxy-phenylamino)-4-methyl-thiazole-5-carboxylic acid 4-dimethylamino-benzylamide] |  | 183.3 to 185.2 |  |
| Cc1nc(Nc2ccc(F)cc2)sc1C(=O)N[C@H](C)c1ccc2ccccc2c1 [Compound 16, 2-(4-fluoro-phenylamino)-4-methyl-thiazole-5-carboxylic acid (R)-1-(naphthalen-2-yl)ethyl amide] |  |  | EC50 ([2]; Caenorhabditis elegans): > 60 µM |
| 2-(4-bromo-phenylamino)-4-methyl-thiazole-5-carboxylic acid 1,2,3,4-tetrahydroisoquinolinamide [Compound 66] | 29.1 |  |  |
| Cc1nc(Nc2ccc(Br)cc2)sc1C(=O)N[C@@H](C)c1ccc2ccccc2c1 [Compound 18, 2-(4-bromo-phenylamino)-4-methyl-thiazole-5-carboxylic acid (S)-1-(naphthalen-2-yl)ethyl amide] | 6.9 |  | EC50 ([2]; Caenorhabditis elegans): 33 µM |
| Cc1nc(Nc2ccc(Cl)cc2)sc1C(=O)N[C@H](C)c1ccc2ccccc2c1 [Compound 52, 2-(4-chloro-phenylamino)-4-methyl-thiazole-5-carboxylic acid (R)-1-(2-naphtalen-2-yl-ethyl)-amide] | 65.4 |  |  |
| COc1ccccc1Nc1nc(C)c(C(=O)NCc2ccc(Br)cc2)s1 [Compound 108, 2-(2-methoxy-phenylamino)-4-methyl-thiazole-5-carboxylic acid 4-bromo-benzylamide] |  | 150.7 to 154.2 |  |
| Cc1nc(Nc2ccc3c(c2)OCCO3)sc1C(=O)N[C@H]1CCC[C@@H]1OCc1ccccc1 [Compound 95] |  | 178 to 180.1 |  |
| Cc1nc(Sc2ccccc2)sc1C(=O)N[C@H]1CCC[C@@H]1OCc1ccccc1 [Compound 81, 4-methyl-2-phenylsulfanyl-thiazole-5-carboxylic acid ((1S,2S)-2-benzyloxycyclopent-1-yl) amide] |  | 129.5 to 132.4 |  |
| Cc1nc(Nc2ccc(Cl)cc2)sc1C(=O)N[C@@H](C)c1ccc2ccccc2c1 [Compound 54, 2-(4-chloro-phenylamino)-4-methyl-thiazole-5-carboxylic acid (S)-1-(2-naphtalen-2-yl-ethyl)-amide] | 6.6 |  |  |
| COc1ccccc1Nc1nc(C)c(C(=O)NCc2c(C)cccc2Cl)s1 [Compound 98, 2-(2-methoxy-phenylamino)-4-methyl-thiazole-5-carboxylic acid 2-chloro-6-methyl-benzylamide] |  | 105.4 to 107.6 |  |
| COc1ccc(OC)c(Nc2nc(C)c(C(=O)N[C@@H]3CCC[C@H]3OCc3ccccc3)s2)c1 [Compound 33, 2-(2,5-dimethoxyphenylamino)-4-methylthiazole-5-carboxylic acid (1R,2R)-2-(benzyloxycyclopent-1-yl) amide] | 10.0 |  |  |
| Cc1nc(NC(=O)c2ccc(C(C)(C)C)cc2)sc1C(=O)N[C@H]1CCC[C@@H]1OCc1ccccc1 [Compound 180, 2-(4-tert-butyl-benzoylamino)-4-methyl-thiazole-5-carboxylic acid ((1S,2S)-2-benzyloxycyclopent-1-yl) amide] |  | 88.7 to 90 |  |
| COc1cc(CNC(=O)c2sc(Nc3ccc(Br)cc3)nc2C)cc(OC)c1 [Compound 65, 2-(4-bromo-phenylamino)-4-methyl-thiazole-5-carboxylic acid 3,5-dimethoxy-benzylamide] | 9.1 |  |  |
| Cc1nc(Nc2ccc(Br)cc2)sc1C(=O)NCc1cccc2ccccc12 [Compound 56, 2-(4-bromo-phenylamino)-4-methyl-thiazole-5-carboxylic acid (naphtalen-1-yl-methyl)-amide] | 6.6 |  |  |
| COc1ccccc1Nc1nc(C)c(C(=O)N[C@@H](C)c2ccc3ccccc3c2)s1 [Compound 55, 2-(2-methoxy-phenylamino)-4-methyl-thiazole-5-carboxylic acid (S)-1-(2-naphtalen-2-yl-ethyl)-amide] | 5.0 |  |  |
| Cc1nc(Nc2ccc(Cl)cc2)sc1C(=O)N[C@@H]1CCC[C@H]1OCc1ccccc1 [Compound 30, 2-(4-chloro-phenylamino)-4-methyl-thiazole-5-carboxylic acid (1R,2R)-2-(benzyloxycyclopent-1-yl) amide] | 8.7 |  | EC50 [2]: > 60 µM |
| COc1ccc(CNC(=O)c2sc(Nc3ccc(Br)cc3)nc2C)cc1 [Compound 60, 2-(4-bromo-phenylamino)-4-methyl-thiazole-5-carboxylic acid 4-methoxy-benzylamide] | 7.7 |  |  |
| COc1ccccc1Nc1nc(C)c(C(=O)NCc2ccc3c(c2)CCO3)s1 [Compound 104, 2-(2-methoxy-phenylamino)-4-methyl-thiazole-5-carboxylic acid (2,3-dihydro-benzofuran-5-ylmethyl)-amide] |  | 136.5 to 140.1 |  |
| Cc1nc(Nc2ccc3occc3c2)sc1C(=O)N[C@H]1CCC[C@@H]1OCc1ccccc1 [Compound 126, 2-(benzofuran-5-ylamino)-4-methyl-thiazole-5-carboxylic acid ((1S,2S)-2-benzyloxycyclopent-1-yl) amide] |  | 164.4 to 169.3 |  |
| Cc1nc(Nc2ccc(Br)cc2)sc1C(=O)NCc1ccc(F)c(C(F)(F)F)c1 [Compound 63, 2-(4-bromo-phenylamino)-4-methyl-thiazole-5-carboxylic acid 4-fluoro-3-trifluoromethyl-benzylamide] | 33.1 |  |  |
| COc1ccccc1Nc1nc(C)c(C(=O)NCc2ccccc2SC)s1 [Compound 97] |  | 66.5 |  |
| Cc1nc(Nc2ccc(Br)cc2)sc1C(=O)N[C@H](C)c1ccc2ccccc2c1 [Compound 19, 2-(4-bromo-phenylamino)-4-methyl-thiazole-5-carboxylic acid (R)-1-(naphthalen-2-yl)ethyl amide] | 33.1 |  | EC50 ([2]; Caenorhabditis elegans): 33 µM |
| COc1ccccc1Nc1nccc(C(=O)N[C@H]2CCC[C@@H]2OCc2ccccc2)n1 [Compound 76, 2-(2-methoxy-phenylamino)-pyrimidine-4-carboxylic acid ((1S,2S)-2-benzyloxycyclopent-1-yl) amide] |  | 97.3 to 99.8 |  |
| Cc1nc(Nc2cccc3ccccc23)sc1C(=O)N[C@H]1CCC[C@@H]1OCc1ccccc1 [Compound 93] |  | 102.4 to 108.2 |  |
| Cc1nc(Nc2ccc(Br)cc2)sc1C(=O)NCc1ccc(N(C)C)cc1 [Compound 64, 2-(4-bromo-phenylamino)-4-methyl-thiazole-5-carboxylic acid 4-dimethylamino-benzylamide] | >120 |  |  |
